In patent US7691838B2, “Method for treating diseases using HSP90-inhibiting agents in combination with antimitotics” (Kosan Biosciences Incorporated, priority 2003, dated 2010):
Like-named read-outs stand apart in the source and are kept apart here.

Tests used:
[1] = on administration; background statement; cited from earlier work
breast cancer cells = conditions: cited from earlier work
[2] = clinical trials, cited from earlier work
[3] = test system: ErbB2-expressing cancer cells; conditions: ErbB2-expressing cancer cells in vitro; Citri et al. 2002; cited from earlier work
[4] = test system: DLD-1 cells (human colorectal cancer cells); test: MTS cell viability drug combination assay, combination index, DLD-1; type: cell-based; conditions: CI<1 synergism
Procedure: (§1) Human colon adenocarcinoma cell line, DLD-1, and human breast adenocarcinoma cell line, SKBr-3, were obtained from American Type Culture Collection (manassas, Va.). DLD-1 cells were maintained in RPMI 1640 medium supplemented with 10% fetal bovine serum, and SKBr-3 cells were cultured in McCoy's 5a medium supplemented with 10% fetal bovine serum. 17-DMAG and 17-AAG were obtained using published procedures. Other cytotoxic agents were purchased commercially from suppliers such as Sigma Chemical Co. (St. Louis, Mo.) and Sequoia Research Products (Oxford, UK).
(§2) Cells were seeded in duplicate in 96-well microtiter plates at a density of 5,000 cells per well and allowed to attach overnight. Cells were treated with 17-AAG or 17-DMAG and the corresponding antimitotic at varying concentrations, ranging from 0.5 picomolar (“pM”) to 50 micromolar (“μM”), for 3 days. Cell viability was determined using the MTS assay (Promega). For the drug combination assay, cells were seeded in duplicate in 96-well plates (5,000 cells/well). […] Based on the IC50 values of each individual drug, combined drug treatment was designed at constant ratios of two drugs, i.e., equivalent to the ratio of their IC50. Two treatment schedules were used: In one schedule, the cells were exposed to 24 hours of 17-AAG or 17-DMAG. The drug was then added to the cells and incubated for 48 hours. In another schedule, cells were exposed to the drug alone for 24 hours followed by addition of 17-AAG or 17-DMAG for 48 hours. Cell viability was determined by the MTS assay.
(§3) Synergism, additivity or antagonism was determined by median effect analysis using the combination index (CI) calculated using Calcusyn (Biosoft, Cambridge, UK). The combination index is defined as follows: CI=[D]1/[Dx]1+[D]2/[Dx]2
(§4) The quantities [D]1 and [D]2 represent the concentrations of the first and second drug, respectively, that in combination provide a response of x % in the assay. The quantities [Dx]1 and [Dx]2 represent the concentrations of the first and second drug, respectively, that when used alone provide a response of x % in the assay. Values of CI<1, CI=1, and CI>1 indicated drug-drug synergism, additivity, and antagonism respectively (Chou and Talalay 1984). The “enhancing” effect of two drugs can also be determined.
“Pre-administration” refers to the administration of 17-AAG to the cells before the administration of antimitotic; “post-administration” refers to the administration of 17-AAG to the cells after the administration of antimitotic.

[5] = test system: SKBr-3 cells (human breast cancer cells); test: MTS cell viability drug combination assay, combination index, SKBr-3; type: cell-based; conditions: CI<1 synergism
Procedure: as §1, §2, §3, §4

[6] = 17-AAG Post-Administration (antimitotic 24 h, then 17-AAG 48 h)
[7] = 17-AAG Pre-Administration (17-AAG 24 h, then antimitotic 48 h)

| SMILES | CI value (combination index) of antimitotic with 17-AAG [4, 6] | CI value (combination index) of antimitotic with 17-AAG [4, 7] | CI value (combination index) of antimitotic with 17-AAG [5, 6] | CI value (combination index) of antimitotic with 17-AAG [5, 7] | also measured |
| --- | --- | --- | --- | --- | --- |
| C=CCNC1=C2C[C@@H](C)C[C@H](OC)[C@H](O)[C@@H](C)/C=C(\C)[C@H](OC(N)=O)[C@@H](OC)/C=C\C=C(/C)C(=O)NC(=CC1=O)C2=O [17-AAG, 17-allylamino-17-desmethoxygeldanamycin] | – | – | – | – | hepatotoxicity [1]: reduced hepatotoxicity; sensitization of cells to cytotoxic effects of other drugs (breast cancer cells; cells in culture, Münster et al. 2001): sensitizes cells in culture to the cytotoxic effects of Paclitaxel and doxorubicin; MTD (maximum tolerated dose) ([2]; daily×5 schedule): about 40 mg/m^2; MTD (maximum tolerated dose) ([2]; once-weekly regimen): about 308 mg/m^2; MTD (maximum tolerated dose) ([2]; twice-weekly regimen): about 220 mg/m^2 |
| C=CC(=O)Nc1cc2c(Nc3ccc(F)c(Cl)c3)ncnc2cc1OCCCN1CCOCC1 [CI-1033] | – | – | – | – | combination effect on growth, with anti-ErB2 antibody Herceptin [3]: antagonistic effect |
| CC(=O)O[C@@]12CO[C@@H]1C[C@H](O)[C@@]1(C)C(=O)[C@H](O)C3=C(C)[C@@H](OC(=O)[C@H](O)[C@@H](NC(=O)OC(C)(C)C)c4ccccc4)C[C@@](O)([C@@H](OC(=O)c4ccccc4)[C@H]21)C3(C)C [Docetaxel, docetaxel] | 0.29 ± 0.12 | 0.79 ± 0.15 | 0.59 ± 0.26 | 0.53 ± 0.11 | – |
| C/C1=C/C[C@@H](/C(C)=C/c2csc(C)n2)OC(=O)C[C@H](O)C(C)(C)C(=O)[C@H](C)[C@@H](O)[C@@H](C)CCC1 [Epothilone D, epothilone D] | 0.61 ± 0.12 | 0.84 ± 0.06 | 0.58 ± 0.009 | 0.72 ± 0.07 | – |
| CC[C@]1(O)C[C@@H]2CN(CCc3c([nH]c4ccccc34)[C@@](C(=O)OC)(c3cc4c(cc3OC)N(C)[C@H]3[C@@](O)(C(=O)OC)[C@H](OC(C)=O)[C@]5(CC)C=CCN6CC[C@]43[C@@H]65)C2)C1 [Vinblastine, vinblastine] | 0.38 ± 0.11 | 0.92 ± 0.3 | 0.68 ± 0.41 | 0.39 ± 0.03 | – |
| CC[C@]1(O)C[C@H]2CN(CCc3c([nH]c4ccccc34)[C@@](C(=O)OC)(c3cc4c(cc3OC)N(C=O)[C@H]3[C@@](O)(C(=O)OC)[C@H](OC(C)=O)[C@]5(CC)C=CCN6CC[C@]43[C@@H]65)C2)C1 [Vincristine, vincristine] | 0.42 ± 0.08 | 0.96 ± 0.3 | 0.99 ± 0.73 | 0.67 ± 0.37 | – |
| CC[C@]1(O)C[C@@H]2CN(CCc3c([nH]c4ccccc34)[C@@](C(=O)OC)(c3cc4c(cc3OC)N(C)[C@H]3[C@@](O)(C(N)=O)[C@H](O)[C@]5(CC)C=CCN6CC[C@]43[C@@H]65)C2)C1 [Vindesine, vindesine] | 0.68 ± 0.08 | 0.91 ± 0.41 | – | – | – |
| COC1=C2C[C@@H](C)C[C@H](OC)[C@H](O)[C@@H](C)/C=C(\C)[C@H](OC(N)=O)[C@@H](OC)/C=C\C=C(/C)C(=O)NC(=CC1=O)C2=O [geldanamycin, Geldanamycin] | – | – | – | – | combination effect on growth, co-administration with CI-1033 [3]: additive effect; hepatotoxicity [1]: unacceptable hepatotoxicity |
| CC(=O)O[C@H]1C(=O)[C@@]2(C)[C@H]([C@H](OC(=O)c3ccccc3)[C@]3(O)C[C@H](OC(=O)[C@H](O)[C@@H](NC(=O)c4ccccc4)c4ccccc4)C(C)=C1C3(C)C)[C@]1(OC(C)=O)CO[C@@H]1C[C@@H]2O [paclitaxel] | – | – | – | – | apoptosis, combination with 17-AAG (breast cancer cells; coincident treatment with paclitaxel and 17-AAG, retinoblastoma protein-producing cells): synergistic apoptosis; apoptosis, combination with 17-AAG (breast cancer cells; paclitaxel followed by 17-AAG 4 hours later): synergistic effect similar to coincident treatment; apoptosis, combination with 17-AAG (breast cancer cells; pretreatment with 17-AAG followed by paclitaxel): abrogation of apoptosis |
